Laboratory results reported in US20190231787A1, “METHODS AND COMPOUNDS FOR TREATING ALCOHOL USE DISORDERS AND ASSOCIATED DISEASES” (PHARMATROPHIX, INC., priority 2016, published 2019).
Entries after “also recorded” stand apart in the source; their conditions may differ.

T1: p75NTR (Rattus norvegicus, UniProt P07174)
T1 construct: from tissue; host or cells: dorsolateral striatum (DLS) of living rats
T1 sequence (P07174 30-425): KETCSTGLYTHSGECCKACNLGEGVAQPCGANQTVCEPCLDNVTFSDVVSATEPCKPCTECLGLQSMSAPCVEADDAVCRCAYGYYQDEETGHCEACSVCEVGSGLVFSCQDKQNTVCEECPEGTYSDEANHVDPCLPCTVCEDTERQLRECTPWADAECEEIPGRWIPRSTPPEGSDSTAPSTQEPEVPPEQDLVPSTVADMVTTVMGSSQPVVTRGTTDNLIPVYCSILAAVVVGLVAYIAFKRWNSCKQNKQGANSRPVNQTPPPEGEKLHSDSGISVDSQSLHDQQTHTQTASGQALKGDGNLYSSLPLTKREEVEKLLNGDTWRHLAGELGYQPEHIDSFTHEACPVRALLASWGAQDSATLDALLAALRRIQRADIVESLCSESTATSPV

T2: p75NTR (Homo sapiens, UniProt P08138)
T2 sequence (P08138 29-427): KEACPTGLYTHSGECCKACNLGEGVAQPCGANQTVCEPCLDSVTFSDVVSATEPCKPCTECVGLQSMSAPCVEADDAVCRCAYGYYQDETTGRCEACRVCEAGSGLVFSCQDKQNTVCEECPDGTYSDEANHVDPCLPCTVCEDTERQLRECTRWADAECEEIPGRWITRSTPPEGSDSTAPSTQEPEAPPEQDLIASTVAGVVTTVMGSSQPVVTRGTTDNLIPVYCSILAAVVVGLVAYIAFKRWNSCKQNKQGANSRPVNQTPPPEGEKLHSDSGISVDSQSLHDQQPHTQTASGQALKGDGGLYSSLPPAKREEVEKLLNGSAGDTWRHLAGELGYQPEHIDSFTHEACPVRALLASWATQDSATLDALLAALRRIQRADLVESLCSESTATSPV

B1: BDNF: Brain-derived neurotrophic factor; Human BDNF was purchased from Sigma-Aldrich (protein, UniProt P23560 19-247, looked up)
Neurotrophic factor BDNF …: APMKEANIRGQGGLAYPGVRTHGTLESVNGPKAGSRGLTSLADTFEHVIEELLDEDQKVRPNEENNKDADLYTSRVMLSSQVPLEPPLLFLLEEYKNYLDAANMSMRVRRHSDPARRGELSVCDSISEWVTAADKKTAVDMSGGTVTVLEKVPVSKGQLKQYFYETKCNPMGYTKEGCRGIDKRHWNSQCRTTQSYVRALTMDSKKRIGWRFIRIDTSCVCTLTIKRGR

How the values were obtained:
p75NTR [1] = molecular target: T1, p75NTR; test: Intermittent access to 1% sucrose 2BC after intra-DLS administration of LM11A-31; assay type: in vivo; details: intra-DLS LM11A-31 30 μg/μl; IA-2BC 1% sucrose, 30 min; vs vehicle
Protocol: (§1) The procedure was similar to the IA20%-2BC paradigm described above, except that a sucrose (1%) solution was substituted for alcohol. Rats were tested for sucrose intake in response to intra-DLS administration of LM11A-31 or vehicle 1 week after the conclusion of the alcohol-drinking study. Animals were trained to drink sucrose for 2 weeks before the test day. An independent cohort of rats underwent IA-2BC sucrose-drinking paradigm for 7 weeks before systemic administration of LM11A-31.
(§2) Cannula implantation and microinfusions of BDNF and LM11A-31. Four holes were drilled for screws, and two holes were drilled for cannulae implantation (single cannula, C315GA; PlasticsOne). The coordinates for the DLS were +1.2 mm anterior to Bregma and 3.5 mm lateral to the medial suture. The cannulae were implanted into the lateral part of the dorsal striatum (−4.2 mm from the skull surface) and fixed with dental cement. After 1 week of recovery, the alcohol-drinking procedure resumed, and subjects were habituated to the microinjection procedure with two sham injections (injectors were lowered but no infusion took place). The experimental microinfusions began after each rat reacquired a stable level of drinking. BDNF, LM11A-31, or PBS was infused via a 25 μl Hamilton syringe (#1702), 3 h (BDNF) or 2 h (LM11A-31) before the beginning of the alcohol-drinking session. […]

[2] = system: p75NTR-mediated neuronal death; details: Knowles et al., 2013, Tep et al.; cited from earlier work
Jun kinase = details: Shi et al., 2013; cited from earlier work
p75NTR [3] = molecular target: T1, p75NTR; test: Intermittent access to 20% alcohol 2BC (IA20%-2BC) binge drinking after intra-DLS infusion of LM11A-31; assay type: in vivo; details: intra-DLS LM11A-31 30 μg/1 μl per side, vs vehicle
Protocol: (§3) At 8 weeks of age, animals were given 24 hours of access to one bottle of 20% alcohol (v/v) and one bottle of tap water concurrently for a total of 21 sessions of 24 hours during a period of 7 weeks. Drinking sessions started at 12:00 P.M. on Monday, Wednesday, and Friday, with 24 or 48 hours (weekend) of alcohol deprivation between the drinking sessions. The water and alcohol bottles were weighed before the beginning of each drinking session, immediately after the first 30 minutes of access to alcohol and at the end of the session. Rats with escalation of alcohol consumption from session 1 to session 18, reaching a baseline of drinking that was higher than 3.5 g/kg/24 h, were selected for the studies.
as §2, with “place).” for “place). The experimental microinfusions began after each rat reacquired a stable level of drinking. BDNF, LM11A-31, or PBS was infused via a 25 μl Hamilton syringe (#1702), 3 h (BDNF) or 2 h (LM11A-31) before the beginning of the alcohol-drinking session.”

p75NTR [4] = molecular target: T1, p75NTR; test: IA-2BC 1% sucrose drinking after systemic administration of LM11A-31; assay type: in vivo; details: LM11A-31 150 mg/kg systemic; IA 1% sucrose 2BC 7 weeks; 30 min access
Protocol: as §1
(§4) Before the beginning of experiments, rats were habituated for 3 days to intraperitoneal administration by daily injections of saline (0.9% NaCl). LM11A-31 (50-150 mg/kg) or vehicle (0.9% saline) was administered intraperitoneally 2 hours before the beginning of the drinking session. Test days occurred once a week, with two alcohol-drinking sessions without treatment that were performed between injections to allow intake to return to baseline. For the highest dose of LM11A-31, vehicle and drug were tested in different animals.
To test whether systemic administration of LM11A-31 attenuates binge drinking of sucrose, rats had IA to 1% sucrose in a 2BC paradigm for 7 weeks, and sucrose consumption was measured after 30 min access following LM11A-31 injection.

p75NTR [5] = molecular target: T1, p75NTR; test: IA20%-2BC binge drinking after systemic (intraperitoneal) administration of LM11A-31; assay type: in vivo; details: 30 min
Protocol: as §3
as §4, with “animals. […]” for “animals.”

p75NTR [6] = molecular target: T2, p75NTR; details: Massa et al., 2006; Longo and Massa, 2013; cited from earlier work
[7] = system: rats with history of moderate (10%) alcohol drinking; details: exogenous BDNF into the DLS, shown previously; cited from earlier work
[8] = system: rats with a history of excessive alcohol drinking; test: Operant self-administration of alcohol after intra-DLS administration of BDNF; assay type: in vivo, rat; details: intra-DLS BDNF 0.75 μg/side 3 hours before operant session; 2.5, 10 and 20% alcohol; rats after 5 weeks IA20%-2BC; vs vehicle (PBS)
Protocol: After 5 weeks of the intermittent access (IA) to 20% alcohol 2BC paradigm (IA20%-2BC), the rats were trained to self-administer alcohol. […] Rats were trained under a fixed ratio 3 schedule; i.e., rats had to press three times to receive one reward. Sessions lasted for the duration of 1 h at the beginning of the training and 30 min after the first 2 weeks. The number of presses on the levers and the number of alcohol deliveries were recorded using MED-PC IV software (Med-Associates).
Cannula implantation and microinfusions of BDNF and LM11A-31. Four holes were drilled for screws, and two holes were drilled for cannulae implantation (single cannula, C315GA; PlasticsOne). The coordinates for the DLS were +1.2 mm anterior to Bregma and 3.5 mm lateral to the medial suture. The cannulae were implanted into the lateral part of the dorsal striatum (−4.2 mm from the skull surface) and fixed with dental cement. […]
To test the possibility that BDNF signaling in the DLS is disrupted after chronic excessive alcohol drinking, the ability of the neurotrophic factor to control alcohol self-administration in rats with a history of excessive alcohol drinking was tested. […] The self-administration of three alcohol concentrations was measured. […]

Molecule	sucrose intake (p75NTR [1])	p75NTR-mediated neuronal death [2]	phosphorylation of Jun kinase (Jun kinase)	binge-like alcohol intake (p75NTR [3]; 2 h before 30 min alcohol binge-drinking session)	concurrent water intake (p75NTR [3]; 2 h before 30 min alcohol session)	binge consumption of sucrose (p75NTR [4])	corresponding water intake (p75NTR [4])	binge drinking of alcohol (p75NTR [5]; LM11A-31 150 mg/kg intraperitoneally 2 hours before session, IA20%-2BC 7 weeks, vs vehicle)	water intake (p75NTR [5]; LM11A-31 50-150 mg/kg intraperitoneally 2 hours before session, IA20%-2BC)	binding between p75NTR and neurotrophins, including BDNF (p75NTR [6])	operant alcohol self-administration [7]	amount of alcohol consumed [8]	number of alcohol deliveries [8]
CC[C@H](C)[C@H](N)C(=O)NCCN1CCOCC1 [LM11A-31, Tris[(2S,3S)-2-amino-3-methyl-N-(2-morpholinoethyl)pentanamide]tetra(monohydrogensulfate), monosulfate]	unaltered	blocks	decreases	significantly reduced	without changing	did not alter	unaltered	significantly attenuated	without altering	disrupting the binding			
B1											reduces	does not decrease; also recorded: did not decrease	does not decrease; also recorded: did not decrease
